# Calls of active or inactive are those of the source. No cut-off for these calls is given here.
# What was measured:
# [1] = target: Adenosine receptor A2a (Homo sapiens, UniProt P29274); assay: Antagonist activity at human adenosine A2A receptor expressed in CHO-K1 cells preincubated for 15 mins before NECA addition measured after 5.5 to 6 hrs by beta-galactosidase reporter gene assay; format: functional, cell-based
# [2] = tested on: Mus musculus; assay: Reversal of haloperidol-induced catalepsy in po dosed balb/c mouse compound administered 30 mins post challenge; format: functional; conditions: 0.5 h
# [3] = target: T1, Adenosine receptor A1 (Homo sapiens, UniProt P30542); assay: Antagonist activity at human adenosine A1 receptor expressed in CHO-K1 cells preincubated for 15 mins before r-PIA addition measured after 5.5 to 6 hrs by beta-galactosidase reporter gene assay; format: cell-based
# T1 sequence (P30542 whole entry): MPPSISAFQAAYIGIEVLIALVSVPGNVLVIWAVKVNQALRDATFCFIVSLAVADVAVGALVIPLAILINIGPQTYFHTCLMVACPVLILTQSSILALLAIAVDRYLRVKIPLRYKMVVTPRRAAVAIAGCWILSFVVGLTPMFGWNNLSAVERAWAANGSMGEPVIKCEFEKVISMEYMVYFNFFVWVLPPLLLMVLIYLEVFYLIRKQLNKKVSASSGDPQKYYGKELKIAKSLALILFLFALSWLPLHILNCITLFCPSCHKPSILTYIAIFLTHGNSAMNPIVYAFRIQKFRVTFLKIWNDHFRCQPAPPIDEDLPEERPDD
# [4] = tested on: Mus musculus; assay: Reversal of haloperidol-induced catalepsy in balb/c mouse at 10 mg/kg, po compound administered 30 mins post challenge; format: functional
# Chain of Adenosine receptor A2a (P29274 whole entry): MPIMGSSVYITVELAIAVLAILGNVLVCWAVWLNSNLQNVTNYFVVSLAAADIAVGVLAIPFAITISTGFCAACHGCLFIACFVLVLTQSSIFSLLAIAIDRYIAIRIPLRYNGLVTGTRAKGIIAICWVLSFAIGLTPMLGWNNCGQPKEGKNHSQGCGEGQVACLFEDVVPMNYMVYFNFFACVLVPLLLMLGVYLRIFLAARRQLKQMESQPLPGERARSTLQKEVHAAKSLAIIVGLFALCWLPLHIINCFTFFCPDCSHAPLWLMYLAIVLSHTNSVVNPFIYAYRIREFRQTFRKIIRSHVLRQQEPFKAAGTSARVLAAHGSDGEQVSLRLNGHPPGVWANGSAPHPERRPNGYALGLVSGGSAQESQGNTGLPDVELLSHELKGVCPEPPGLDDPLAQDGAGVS
Structure (SMILES),Ki [1] [nM],Ki [3] [nM],ED50 [2] [mg/kg],Activity [4]
C[C@@H]1CCC[C@H](C)N1Cc1cc2c(N)nc(-c3ccco3)nc2s1,5.3,,,
Nc1nc(-c2ccco2)nc2sc(CN3CCC(F)(F)C3)cc12,8.7,,10,
Nc1nc(-c2ccccc2C(F)(F)F)nc2sc(CN3CCC(F)CC3)cc12,> 10000,> 10000,,
C[C@@H]1CCC[C@H](C)N1Cc1cc2c(N)nc(-c3ccc(Br)o3)nc2s1,,40.2,,
C[C@@H]1CCC[C@H](C)N1Cc1cc2c(N)nc(-c3ccc(C4CC4)o3)nc2s1,110,,,
Cc1ccc(-c2nc(N)c3cc(CN4CCCC4)sc3n2)o1,,,,inactive
Nc1nc(-c2ccco2)nc2sc(CN3CCOCC3)cc12,29,1680,1.3,
Nc1nc(-c2ccco2)nc2sc(CN3CCC(F)(F)CC3)cc12,49.6,,,
Nc1nc(-c2ccc(Br)o2)nc2sc(CN3CCOCC3)cc12,30,725,,
C[C@@H]1CCC[C@H](C)N1Cc1cc2c(N)nc(-c3ccc(C(F)F)o3)nc2s1,28.6,,,inactive
Nc1nc(-c2cccs2)nc2sc(CN3CCOCC3)cc12,125,1020,,
Nc1nc(-c2ccc(C(F)F)o2)nc2sc(CN3CCOCC3)cc12,,,,inactive
CN(C)Cc1cc2c(N)nc(-c3ccco3)nc2s1,140,,,
CC(C)c1ccc(-c2nc(N)c3cc(CN4CCOCC4)sc3n2)o1,> 1360,> 600,,
Nc1nc(-c2ccco2)nc2sc(CNC3CC3)cc12,,,,inactive
CS(=O)(=O)c1cccc(-c2nc(N)c3cc(CN4CCC(F)CC4)sc3n2)c1,> 10000,> 10000,,
CCc1ccc(-c2nc(N)c3cc(CN4[C@H](C)CCC[C@@H]4C)sc3n2)o1,25.2,190,,
CN(C)C(=O)c1cccc(-c2nc(N)c3cc(CN4CCC(F)CC4)sc3n2)c1,2250,> 10000,,
Nc1nc(-c2ccc(Cl)o2)nc2sc(CN3CCC(F)(F)C3)cc12,15.9,245,,

Structure (SMILES),Ki [1] [nM],Ki [3] [nM],ED50 [2] [mg/kg],Activity [4]
Nc1nc(-c2nccs2)nc2sc(CN3CCOCC3)cc12,250,,,
N#Cc1cccc(-c2nc(N)c3cc(CN4CCOCC4)sc3n2)c1,,,< 1,
Nc1nc(-c2ccco2)nc2sc(CN3CCSCC3)cc12,9.2,369,3.2,
Nc1nc(-c2ccc(C3CC3)o2)nc2sc(CN3CCOCC3)cc12,,> 1100,,
Nc1nc(-c2ccc(Cl)o2)nc2sc(CN3CCCC3)cc12,,,,inactive
Cc1ccc(-c2nc(N)c3cc(CN4CCCCC4)sc3n2)o1,28.8,,,inactive
Nc1nc(-c2ccc(C(F)F)o2)nc2sc(CN3CCCC(F)(F)C3)cc12,43.2,,,
CCc1ccc(-c2nc(N)c3cc(CN4CCOCC4)sc3n2)o1,,> 610,,
Nc1nc(-c2ccc(Cl)o2)nc2sc(CN3CCC(F)CC3)cc12,36.7,,,
Nc1nc(-c2ccco2)nc2sc(CN3CCCC3)cc12,,,,inactive
Nc1nc(-c2ccco2)nc2sc(CN3CCC(F)CC3)cc12,19.7,,< 1,
Nc1nc(-c2ccc(Cl)o2)nc2sc(CN3CCOCC3)cc12,45.4,640,,
Cc1csc(-c2nc(N)c3cc(CN4CCOCC4)sc3n2)n1,,> 930,,
Nc1nc(-c2ccco2)nc2sc(CNC3CCCCC3)cc12,170,,,
CC(C)c1ccc(-c2nc(N)c3cc(CN4[C@H](C)CCC[C@@H]4C)sc3n2)o1,17,140,,inactive
Nc1nc(-c2ccco2)nc2sc(CN3CCCC(F)(F)C3)cc12,,290,< 1,
Nc1nc(-c2ccco2)nc2sc(CN3CCCCCC3)cc12,27.6,1170,,
Nc1nc(-c2ccc(Cl)o2)nc2sc(CN3CCCC(F)(F)C3)cc12,9.1,188,,

# More lines, main results first:
Ki [1] [nM],Ki [3] [nM],Structure (SMILES),ED50 [2] [mg/kg],Activity [4]
180,,N#Cc1ccc(-c2nc(N)c3cc(CN4CC=CCC4)sc3n2)cc1,,
390,,N#Cc1ccc(-c2nc(N)c3cc(CN4CCC(F)CC4)sc3n2)cc1,,
> 10000,,N#Cc1cccc(-c2nc(N)c3cc(CN4CCCC4)sc3n2)c1,,
54.4,,N#Cc1cccc(-c2nc(N)c3cc(CN4CCC(F)CC4)sc3n2)c1,< 1,
> 10000,3560,Nc1nc(-c2ccc(C(F)(F)F)cc2)nc2sc(CN3CCC(F)CC3)cc12,,
11,190,Nc1nc(-c2ccc(Cl)o2)nc2sc(CN3CC=CCC3)cc12,,
,2960,Nc1nc(-c2cccc(C(F)(F)F)c2)nc2sc(CN3CC=CC3)cc12,,
10.3,,Nc1nc(-c2ccco2)nc2sc(CN3CCC(F)C3)cc12 (stereo unspecified),,inactive
110,,Nc1nc(-c2cccc(F)c2)nc2sc(CN3CCOCC3)cc12,,
3760,> 10000,Nc1nc(-c2cccc([N+](=O)[O-])c2)nc2sc(CN3CCC(F)CC3)cc12,,
10,,Nc1nc(-c2ccc(Cl)o2)nc2sc(CN3CC=CC3)cc12,,inactive
995,> 5000,Nc1nc(-c2ccccc2)nc2sc(CN3CCOCC3)cc12,,
39,840,N#Cc1cccc(-c2nc(N)c3cc(CN4CCCC(F)(F)C4)sc3n2)c1,< 1,
22.5,710,Nc1nc(-c2ccc(Br)o2)nc2sc(CN3CCCC3)cc12,,inactive
240,2960,Nc1nc(-c2ncco2)nc2sc(CN3CC=CCC3)cc12,,
> 10000,3030,Nc1nc(-c2cccc(C(F)(F)F)c2)nc2sc(CN3CCC(F)CC3)cc12,,
7.2,290,Nc1nc(-c2ccco2)nc2sc(CN3CC=CC3)cc12,< 0.1,
50.9,980,N#Cc1cccc(-c2nc(N)c3cc(CN4CCSCC4)sc3n2)c1,,
120,,Nc1nc(-c2cccc(Cl)c2)nc2sc(CN3CCOCC3)cc12,,
6.5,150,Nc1nc(-c2ccco2)nc2sc(CN3CC=CCC3)cc12,< 3,
110,> 10000,Nc1nc(-c2cccs2)nc2sc(CN3CCCC3)cc12,,
240,3890,Nc1nc(-c2ncco2)nc2sc(CN3CC=CC3)cc12,,

# Reference: ChEMBL document CHEMBL3217453, “Aminomethyl substituted thieno[2,3-d]pyrimidines as adenosine A2A receptor antagonists” (Medchemcomm, 2011)
